Test results taken from ChEMBL document CHEMBL1128020, “Synthesis and sar of 2h-1,2,4-benzothiadiazine-1,1-dioxide-3-carboxylic acid derivatives as novel potent glycine antagonists of the nmda receptor-channel complex” (Bioorg Med Chem Lett, 1994).

The compounds below were run against Glutamate NMDA receptor (assay: Binding affinity at the glycine binding site of the N-methyl-D-aspartate glutamate receptor in rat cortical membranes using [3H]dichlorokynurenate ([3H]DCKA) as radioligand).
Format: cell membranes, Membrane
In the case of `CCOC(=O)C1Nc2cc(Cl)cc(Cl)c2S(=O)(=O)N1CCOc1ccccc1` (stereo not given), the IC50 is reported as 41 nM. In the case of `CCOC(=O)C1Nc2cc(Cl)cc(Cl)c2S(=O)(=O)N1Cc1cccc(OC)c1` (stereo not given), the IC50 is reported as 12 nM. `CCOC(=O)C1Nc2cc(Cl)cc(Cl)c2S(=O)(=O)N1Cc1ccc(OC)cc1` (stereo not given) showed an IC50 of 40 nM. In the case of `O=C(O)C1Nc2cc(Cl)cc(Cl)c2S(=O)(=O)N1CCS(=O)(=O)c1ccccc1` (stereo not given), the IC50 is reported as 70 nM. Work on `O=C(O)C1Nc2cc(Cl)cc(Cl)c2S(=O)(=O)N1CCCCc1ccccc1` (stereo not given) yielded an IC50 of 77 nM. Work on `O=C(O)C1Nc2cc(Cl)cc(Cl)c2S(=O)(=O)N1Cc1ccccc1` (stereo not given) yielded an IC50 of 48 nM. `CCOC(=O)C1Nc2cc(Cl)cc(Cl)c2S(=O)(=O)N1Cc1cccc(C(F)(F)F)c1` (stereo not given) was tested, and the IC50 was 18 nM. In the case of `O=C(O)C1Nc2cc(Cl)cc(Cl)c2S(=O)(=O)N1Cc1cccc(Br)c1` (single isomer, unassigned; (-)), the IC50 is reported as 4 nM. Compound `O=C(O)C1Nc2cc(Cl)cc(Cl)c2S(=O)(=O)N1c1ccccc1` (stereo not given) has an IC50 of 2600 nM. With `O=C(O)CCc1c(C(=O)O)[nH]c2cc(Cl)cc(Cl)c12` the IC50 was 50 nM. `CCOC(=O)C1Nc2cc(Cl)cc(Cl)c2S(=O)(=O)N1Cc1cccc(C)c1` (stereo not given) was tested, and the IC50 was 14 nM. `COc1ccccc1CN1C(C(=O)O)Nc2cc(Cl)cc(Cl)c2S1(=O)=O` (stereo not given) gave an IC50 of 21 nM. For `CCOC(=O)C1Nc2cc(Cl)cc(Cl)c2S(=O)(=O)N1Cc1cccc(N)c1` (stereo not given), the IC50 was 29 nM. `CCOC(=O)C1Nc2cc(Cl)cc(Cl)c2S(=O)(=O)N1Cc1ccccc1Cl` (stereo not given) gave an IC50 of 48 nM. Work on `CCOC(=O)C1Nc2cc(Cl)cc(Cl)c2S(=O)(=O)N1Cc1cccc(-c2ccccc2)c1` (stereo not given) yielded an IC50 of 20 nM. For `CCOC(=O)C1Nc2cc(Cl)cc(Cl)c2S(=O)(=O)N1Cc1ccc(F)cc1` (stereo not given), the IC50 was 44 nM. With `CCOC(=O)C1Nc2cc(Cl)cc(Cl)c2S(=O)(=O)N1Cc1cccc(Cl)c1` (stereo not given) the IC50 was 11 nM. In the case of `CCOC(=O)C1Nc2cc(Cl)cc(Cl)c2S(=O)(=O)N1Cc1ccc(C)cc1` (stereo not given), the IC50 is reported as 45 nM. Compound `O=C(O)CN1C(C(=O)O)Nc2cc(Cl)cc(Cl)c2S1(=O)=O` (stereo not given) has an IC50 of 9500 nM. `CCOC(=O)C1Nc2cc(Cl)cc(Cl)c2S(=O)(=O)N1Cc1cccc(C#N)c1` (stereo not given) gave an IC50 of 17 nM. In the case of `CCOC(=O)C1Nc2cc(Cl)cc(Cl)c2S(=O)(=O)N1Cc1ccccc1F` (stereo not given), the IC50 is reported as 26 nM. With `CCOC(=O)C1Nc2cc(Cl)cc(Cl)c2S(=O)(=O)N1CC(=O)c1ccccc1` (stereo not given) the IC50 was 22 nM. Compound `O=C(O)C1Nc2cc(Cl)cc(Cl)c2S(=O)(=O)N1Cc1ccccc1C(F)(F)F` (stereo not given) has an IC50 of 100 nM. `O=C(O)C1Nc2cc(Cl)cc(Cl)c2S(=O)(=O)N1Cc1cccc(Br)c1` (stereo in doubt; (+)8k) showed an IC50 of 1880 nM. For `O=C(O)C1Nc2cc(Cl)cc(Cl)c2S(=O)(=O)N1CCCCCc1ccccc1` (stereo not given), the IC50 was 36 nM. `O=C(O)C1Nc2cc(Cl)cc(Cl)c2S(=O)(=O)N1Cc1cccc(F)c1` (stereo not given) gave an IC50 of 13 nM. Compound `O=C(O)c1cc(O)c2c(Cl)cc(Cl)cc2n1` has an IC50 of 46 nM. In the case of `CCOC(=O)C1Nc2cc(Cl)cc(Cl)c2S(=O)(=O)N1Cc1cccc(Oc2ccccc2)c1` (stereo not given), the IC50 is reported as 9 nM. In the case of `CCOC(=O)C1Nc2cc(Cl)cc(Cl)c2S(=O)(=O)N1C` (stereo not given), the IC50 is reported as 400 nM. In the case of `CCOC(=O)C1Nc2cc(Cl)cc(Cl)c2S(=O)(=O)N1Cc1ccccc1C` (stereo not given), the IC50 is reported as 80 nM. `CCOC(=O)C1Nc2cc(Cl)cc(Cl)c2S(=O)(=O)N1Cc1ccc(Cl)cc1` (stereo not given) was tested, and the IC50 was 20 nM. Compound `O=C(Nc1ccccc1)N[C@H]1C[C@H](C(=O)O)Nc2cc(Cl)cc(Cl)c21` (single isomer, unassigned) has an IC50 of 26 nM. For `CCOC(=O)C1Nc2cc(Cl)cc(Cl)c2S(=O)(=O)N1CCSc1ccccc1` (stereo not given), the IC50 was 38 nM. `O=C(O)C1Nc2cc(Cl)cc(Cl)c2S(=O)(=O)N1Cc1cccc(I)c1` (stereo not given) showed an IC50 of 8 nM. `O=C(O)C1Nc2cc(Cl)cc(Cl)c2S(=O)(=O)N1CCc1ccccc1` (stereo not given) was tested, and the IC50 was 90 nM. For `O=C(O)C1Nc2cc(Cl)cc(Cl)c2S(=O)(=O)N1Cc1ccc(C(F)(F)F)cc1` (stereo not given), the IC50 was 92 nM. With `O=C(O)C1Nc2cc(Cl)cc(Cl)c2S(=O)(=O)N1Cc1cccc(OC(F)(F)F)c1` (stereo not given) the IC50 was 20 nM. Compound `CCOC(=O)C1Nc2cc(Cl)cc(Cl)c2S(=O)(=O)N1Cc1cccc([N+](=O)[O-])c1` (stereo not given) has an IC50 of 12 nM. With `O=C(O)C1Nc2cc(Cl)cc(Cl)c2S(=O)(=O)N1CCCc1ccccc1` (stereo not given) the IC50 was 33 nM.

What follows are compounds tested against Glutamate receptor 4 (Homo sapiens, UniProt P48058) (assay: Binding affinity against AMPA receptor using [3H]AMPA as the radioligand.).
Chain of Glutamate receptor 4 (P48058 whole entry): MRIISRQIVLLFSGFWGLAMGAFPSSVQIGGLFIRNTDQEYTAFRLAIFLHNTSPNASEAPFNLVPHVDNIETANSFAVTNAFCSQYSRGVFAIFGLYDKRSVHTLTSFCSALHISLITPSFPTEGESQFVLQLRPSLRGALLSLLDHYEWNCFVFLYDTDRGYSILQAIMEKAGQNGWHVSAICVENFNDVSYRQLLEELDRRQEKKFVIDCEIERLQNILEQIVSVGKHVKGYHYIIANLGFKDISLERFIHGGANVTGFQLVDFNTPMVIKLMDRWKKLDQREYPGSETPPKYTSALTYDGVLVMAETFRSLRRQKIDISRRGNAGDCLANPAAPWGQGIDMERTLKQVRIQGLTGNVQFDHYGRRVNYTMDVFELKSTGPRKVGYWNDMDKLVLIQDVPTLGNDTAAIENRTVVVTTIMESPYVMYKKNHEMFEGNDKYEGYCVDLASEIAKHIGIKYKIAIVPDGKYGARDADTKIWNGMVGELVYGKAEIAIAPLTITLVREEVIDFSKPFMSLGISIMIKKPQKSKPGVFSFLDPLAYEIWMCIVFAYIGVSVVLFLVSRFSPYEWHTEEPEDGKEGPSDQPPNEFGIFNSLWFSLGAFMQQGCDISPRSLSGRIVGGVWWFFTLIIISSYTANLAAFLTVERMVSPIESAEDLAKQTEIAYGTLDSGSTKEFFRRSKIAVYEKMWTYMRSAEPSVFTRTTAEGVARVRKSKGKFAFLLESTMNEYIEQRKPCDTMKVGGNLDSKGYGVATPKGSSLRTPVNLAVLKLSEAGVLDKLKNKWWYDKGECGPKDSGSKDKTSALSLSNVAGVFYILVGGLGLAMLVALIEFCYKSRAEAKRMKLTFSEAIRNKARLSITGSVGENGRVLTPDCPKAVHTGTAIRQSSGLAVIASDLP
Work on `O=C(O)C1Nc2cc(Cl)cc(Cl)c2S(=O)(=O)N1Cc1cccc(Br)c1` (stereo not given) yielded an IC50 of 38000 nM.
